The values below come from patent US5877165A, “Boronated porhyrins and methods for their use” (priority 1997, dated 1999).

“Also recorded” adds a separate entry of the source.

The conditions of series [1]: total doses up to 272 μg/gbw, n>80 mice (Miura et al., 1996); cited from earlier work.
Series [2] can be described thus: Toxicity testing of NiTCP, MnTCP and CuTCP in normal mice (Example 13, Table 3). The series is classed as in vivo, BALB/c mice. Particulars: 4 days after last of 6 ip injections. As to the method:
Levels of glucose [GLU], blood urea nitrogen [BUN], blood creatinine [BCR], alanine transaminase [ALT], aspartate transaminase [AST], alkaline phosphatase [ALP], total protein [TPR], albumin [ALB], and creatine phosphokinase [CPK] were determined in blood plasma using a Cobas Fara II microanalysis system. Blood platelets [PLT] and white blood cells [WBC] were counted using a Serono-Baker System 9000 automated hematology microanalyzer.
Compounds prepared as in Example 1B and 1C were formulated with 6% Cremophor EL [CRM] and 12% propylene glycol [PrG] in saline. Total doses of MnTCP and CuTCP of 174 and 223 μg/g body weight, respectively, were administered to normal BALB/c mice. Each mouse was given 6 intraperitoneal [ip] injections over a period of 32 hours. Mice were euthanized 4 days after the last injection and chemical, enzymatic and hematological analyses of their blood were compared to those of similar mice given NiTCP at a dose of 252 μg/g body weight.

Series [3] can be described thus: Overall ranking of boronated porphyrins for BNCT guided by biodistribution and toxicity tests in mice (Table 11). As to the method: The higher the numerical value, the better the performance of that porphyrin for that property. […] Although VCDP was able to deliver therapeutic amounts of boron to tumor, such side effects such as thrombocytopenia, which was induced within 3 hours after injections, weight loss, and the altered hepatic enzymes were serious enough to rank VCDP considerably behind the TCP's and the TCP-H's (Miura et al., 1992). In addition, the 80-hour drug administration period and the 90-hour blood clearance period are of great inconvenience. Moreover, this 4-day difference between the VCDP and the TCP (or TCP-H) dose and clearance schedules would translate into a 4-day greater delay between initiation of drug administration and neutron irradiation which would allow greater tumor growth to occur.
[…]
biodistribution and toxicity tests in mice. An asterisk indicates

The nature of series [4]: Hematological, enzymatic and chemical blood analyses and weight change, mice with KHJJ mammary carcinomas (Examples 8-12, Table 2). Type of series: in vivo, BALB/c mice. As to conditions: 244 μg/gbw; 17 hr to 4 d. The protocol: Female BALB/c mice (Taconic Farms, Germantown, N.Y.) (20-25 g) were implanted with either KHJJ or EMT-6 tumors. For KHJJ tumors, 1-3 mm^3 tumor fragments were implanted subcutaneously (s.c.) in the dorsal thorax of each mouse using an 18-gauge trocar. For EMT-6 tumors, 2.5×10^5 cells were implanted similarly using a 27-gauge needle. EMT-6 tumor cells were grown alternately in vivo and in vitro. Single-cell suspensions were prepared from mouse-grown tumors by trypsinization. These were grown in cell culture for several passages and then were frozen in 10% DMSO and stored in liquid nitrogen. Prior to implantation in mice, the cells were thawed and grown in tissue culture in Alpha-MEM with 10% FBS for several passages. […]
Levels of glucose [GLU], blood urea nitrogen [BUN], blood creatinine [BCR], alanine transaminase [ALT], aspartate transaminase [AST], alkaline phosphatase [ALP], total protein [TPR], albumin [ALB], and creatine phosphokinase [CPK] were determined in blood plasma using a Cobas Fara II microanalysis system. Blood platelets [PLT] and white blood cells [WBC] were counted using a Serono-Baker System 9000 automated hematology microanalyzer. […]

Consider “Nickel Tetracarboranylphenylporphyrin [NiTCP]”, for which, in series [1], the “mortality and toxicity, in words” value was “no mortality (n>80) nor any substantial toxicity”. Besides, the “toxicity / thrombocytopenia, in words” value in series [2] is reported as “nontoxic”. Also, in series [3], the “Drug tolerance/deliverable boron (ranking)” value is 4, the “Lipophilicity (ranking)” value was 2, the “Tumor uptake (normalized) (ranking)” value came out at 3 and the “Tumor:Blood (ranking)” value was 3. Also, the “toxicity, in words (general)” value in series [3] (in vivo, at (potentially) therapeutic doses) is “substantially less toxic”. In addition, in series [4], the “toxicity, in words” value is “non-toxic; also recorded: only slight differences in the results of blood chemical analyses between the NiTCP groups and the solvent-only control groups; also recorded: Weight loss was only observed 17 hours after the last injection of NiTCP”.
